Holding throughout (assay type): in vivo, mouse
One experiment concerns Foxp3+ Tregs. As to the kind of experiment: Conditional ablation of Treg by DTx, confirmed by flow cytometry. As to the method: (§1) Mice were transcardially perfused with PBS, and tissues were treated as previously described (Baruch et al, 2013). Brains were dissected and the different brain regions were removed under a dissecting microscope (Stemi DV4; Zeiss) in PBS, and tissues were dissociated using the gentleMACS™ dissociator (Miltenyi Biotec). Choroid plexus tissues were isolated from the lateral, third and fourth ventricles of the brain, incubated at 37° C. for 45 min in PBS (with Ca^2+/Mg^2+) containing 400 U/ml collagenase type IV (Worthington Biochemical Corporation), and then manually homogenized by pipetting. Spleens were mashed with the plunger of a syringe and treated with ACK (ammonium chloride potassium) lysing buffer to remove erythrocytes. In all cases, samples were stained according to the manufacturers' protocols. All samples were filtered through a 70 μm nylon mesh, and blocked with anti-Fc CD16/32 (1:100; BD Biosciences). For intracellular staining of IFN-γ, the cells were incubated with […] (10 ng/ml; Sigma-Aldrich) and ionomycin (250 ng/ml; Sigma-Aldrich) for 6 h, and Brefeldin-A (10 μg/ml; Sigma-Aldrich) was added for the last 4 h. Intracellular labeling of cytokines was done with BD Cytofix/Cytoperm™ Plus fixation/permeabilization kit (cat. no. 555028). […] Cells were analyzed on an LSRII cytometer (BD Biosciences) using FlowJo software. […]
(In general: A flow cytometer gives signals particle by particle.)

The subject of experiment [1] is IFN-γ-expressing immune cells in the CP. Description: Flow cytometry of CP IFN-γ-expressing immune cells. The settings on record: weekly-GA, 5XFAD AD-Tg mice, end of 1st week of regimen. How it is done: as §1
The test system of the next experiment is GFP+ mo-MΦ. Description: Homing of GFP+ mo-MΦ in AD-Tg/CX3CR1GFP/+ BM chimeras. As to the method: Tissue processing and immunohistochemistry were performed on paraffin embedded sectioned mouse (6 μm thick) and human (10 μm thick) brains. For human ICAM-1 staining, primary mouse anti-ICAM (1:20 Abcam; ab2213) antibody was used. Slides were incubated for 10 min with 3% H2O2, and a secondary biotin-conjugated anti-mouse antibody was used, followed by biotin/avidin amplification with Vectastain ABC kit (Vector Laboratories). Subsequently, 3,3′-diaminobenzidine (DAB substrate) (Zytomed kit) was applied; slides were dehydrated and mounted with xylene-based mounting solution. For tissue stainings, mice were transcardially perfused with PBS prior to tissue excision and fixation. CP tissues were isolated under a dissecting microscope (Stemi DV4; Zeiss) from the lateral, third, and fourth ventricles of the brain. […] Microscopic analysis, was performed using a fluorescence microscope (E800; Nikon) or laser-scanning confocal microscope (Carl Zeiss, Inc.). The fluorescence microscope was equipped with a digital camera (DXM 1200F; Nikon), and with either a 20× NA 0.50 or 40× NA 0.75 objective lens (Plan Fluor; Nikon). […] For quantification of staining intensity, total cell and background staining was measured using ImageJ software (NIH), and intensity of specific staining was calculated, as previously described (Burgess et al, 2010). […]

Diphtheria toxin [DTx]: the “depletion of the GFP-expressing FoxP3+ CD4+ Treg cells” value in the experiment with Foxp3+ Tregs (blood and spleen, Foxp3.LuciDTR mice, DTx 8 ng/g i.p. daily 4 consecutive days) was over 99%. Moreover, in the experiment on Foxp3+ Tregs (splenocytes from AD-Tg/Foxp3-DTR+/− mice, 1 day after last injection, DTx i.p. 4 days), the “depletion of Foxp3+ cells” value is on record as about 99%.
On to Glatiramer acetate [GA], for which the “IFN-γ-producing cells at the CP” value in experiment [1] is “increase”. Also, the “homing of GFP+ mo-MΦ to the CP and adjacent ventricular spaces” value in the experiment on GFP+ mo-MΦ (weekly-GA vs vehicle-treated AD-Tg/CX3CR1GFP/+ controls) is given as “increased homing”. Besides, in the experiment on GFP+ mo-MΦ (weekly-GA, AD-Tg/CX3CR1GFP/+ chimeras), the “GFP+ mo-MΦ in the brain parenchyma (immunohistochemistry)” value is “accumulation at sites of cerebral plaque formation”.

(Values after patent US10961309B2, “Reducing systemic regulatory T cell levels or activity for treatment of disease and injury of the CNS” (Yeda Research and Development Co. Ltd, priority 2014, dated 2021).)
